In patent publication US10945978B2, “Treatment and diagnosis of melanoma” (The Rockefeller University, priority 2012, dated 2021):
Structures can show the parent of a compound that is named as a salt.

Experiments:
[1] = system: human umbilical vein endothelial cells (HUVEC's); test: Endothelial recruitment assay (HUVEC migration towards melanoma cells); type: cell-based; conditions: for ability of melanoma cells to recruit endothelial cells: MeWo, HT-144, SK-Mel-2, SK-Mel-334.2, 1 μM for 72 hours
Protocol: 5×10^4 cancer cells were seeded into 24-well plates approximately 24 hours prior to the start of the assay. HUVEC's were grown to 80% confluency and serum starved in EGM-2 media supplemented with 0.2% FBS for 16 hours. HUVEC's were then pulsed with Cell Tracker Red CMTPX dye (C34552, Invitrogen) for 45 minutes. Meanwhile, cancer cells were washed with PBS, 0.5 mL of 0.2% FBS EGM-2 media was added to each well, and a 3.0 μm HTS Fluoroblock insert (351151, BD Falcon, San Jose, Calif.) was placed into each well. 1×10^5 HUVEC's, resuspended in 0.5 mL of starvation media, were seeded into each trans-well insert, and the recruitment assay was allowed to proceed for 16-18 hours at 37° C. For neutralization antibody and/or recombinant protein experiments, antibody/protein was then added to each well at the appropriate concentration as indicated in the figures: 40 μg/mL anti-ApoE 1D7, 40 μg/mL anti-IgG, 100 μM rhApoE3, and 100 μM BSA. Upon completion of the assay, the inserts were processed and analyzed as described for the matrigel invasion assay above (See Matrigel Invasion Assay).
The endothelial recruitment assay was carried out as previously described (Pencheva et al., 2012; Png et al., 2012). Melanoma cells were treated with DMSO, GW3965, T0901317, or Bexarotene at 1 μM for 56 hours, after which 5×10^4 cells were seeded in a 24-well plate in the presence of each drug and allowed to attach for 16 hours prior to starting the assay. HUVEC cells were serum-starved overnight in EGM-2 media containing 0.2% FBS. The following day, 1×10^5 HUVEC cells were seeded into a 3.0 μm HTS Fluoroblock trans-well migration insert (351151, BD Falcon, San Jose, Calif.) fitted into each well containing cancer cells at the bottom. The HUVEC cells were allowed to migrate towards the cancer cells for 20 hours at 37° C., after which the inserts were processed as previously described (Pencheva et al., 2012). For ApoE antibody neutralization experiments, 40 μg/mL 1D7 anti-ApoE blocking antibody (Heart Institute, University of Ottawa, Ottawa, Canada) or 40 μg/mL anti-IgG control antibody (AB-108-C, R&D Systems, Minneapolis, Minn.) was added to each trans-well insert at the start of the assay.
Subsequently, 5×10^4 cancer cells were seeded into 24-well plates in the presence of each drug or DMSO and allowed to attach for 16 hours prior to starting the assay. Human umbilical vein endothelial cells (HUVEC cells) were serum-starved in 0.2% FBS-containing media overnight. The following day, 1×10^5 HUVEC cells were seeded into a 3.0 μm HTS Fluoroblock insert (351151, BD Falcon) fitted into each well containing the cancer cells at the bottom. The HUVEC cells were allowed to migrate towards the cancer cells for 20 hours, after which the inserts were washed in PBS, fixed in 4% PFA, labeled with DAPI, and mounted on slides. The basal side of each insert was imaged using an inverted fluorescence microscope (Zeiss Axiovert 40 CFL) at 5× magnification, and the number of DAPI-positive cells was quantified using ImageJ.

[2] = system: ApoE promoter fused to ME.1 or ME.2; test: ApoE promoter activity assay (luciferase); type: cell-based, human; conditions: MeWo cells; 1 μM, 24 hours
Description: The ApoE promoter, consisting of a sequence spanning 980 base pairs upstream and 93 base pairs downstream of the ApoE gene, was cloned into a pGL3-Basic vector (E1751, Promega Corporation, Madison, Wis.) upstream of the firefly luciferase gene using NheI and SacI restriction enzymes. Then, multi-enhancer elements 1 (ME. 1) and 2 (ME.2) were cloned directly upstream of the ApoE promoter using MluI and SacI restriction enzymes. To assess ApoE promoter- and ME.1/ME.2-driven transcriptional activation by LXR agonists, 5×10^4 MeWo cells were seeded into a 24-well plate. The following day, 100 ng of pGL3-ME. […] To assess transcriptional activation by LXRα or LXR(3, 5×10^4 MeWo cells expressing a control shRNA or shRNA targeting LXRα or LXRβ were seeded into a 24-well plate. The following day, 200 ng of pGL3-ME. 1/ME.2-ApoE promoter construct and 2 ng of pRL-CMV renilla luciferase were co-transfected into cells in the presence of DMSO, GW3965, or T0901317 at 1 μM, each condition in quadruplicate. After 24 hours, cells were lysed, and cell lysate was analyzed for firefly and renilla luciferase activity using the Dual Luciferase Assay System (E1960, Promega) and a Bio-Tek Synergy NEO Microplate Reader. Firefly luciferase signal was normalized to renilla luciferase signal and all data are expressed relative to the luciferase activity ratio measured in the DMSO-treated control cells.

[3] = system: Extracellular ApoE; test: ApoE ELISA in conditioned media; type: cell-based, human; conditions: MeWo cells; 1 μM, 72 hours
Protocol: Extracellular ApoE levels in serum-free conditioned media from melanoma cells treated with DMSO, GW3965, or T0901317 (1 μM each) were quantified using the ApoE ELISA kit (Innovative Research) at 72 hours following treatment.

[4] = system: ApoE; test: ApoE expression in mice fed LXR agonist diet (western blot, qRT-PCR); type: in vivo, mouse; conditions: 10 days; for ApoE protein expression in systemic adipose, lung, and brain tissues: chow 20 mg/kg, western blot; for ApoE transcript levels in circulating white blood cells: diet 20 mg/kg, qRT-PCR
Protocol: Mouse lung and brain tissue samples were homogenized on ice in RIPA buffer (Sigma-Aldrich) supplemented with protease inhibitors (Roche). Mouse adipose tissue was homogenized on ice in TNET buffer (1.5 mM Tris pH 7.5, 150 mM NaCl, 2 mM EDTA 1% triton, protease inhibitors). Total protein lysate (2 jag) was separated by SDS-PAGE, transferred to PVDF membrane, and blotted with an anti-mouse ApoE (ab20874, Abcam) and anti-tubulin α/β (2148, Cell Signaling) antibodies. RNA was extracted from whole cell lysates using the Total RNA Purification Kit (17200, Norgen, Thorold, Canada). 600 ng of total RNA was then reverse transcribed into cDNA using the cDNA First-Strand Synthesis Kit (18080-051, Invitrogen), and quantitative real-time PCR amplification was performed as previously described (Pencheva et al., 2012) using an ABI Prism 7900HT Real-Time PCR System (Applied Biosystems, Austin, Tex.). Each PCR reaction was carried out in quadruplicates. Gene expression was normalized to GAPDH, which was used as an endogenous control.

[5] = system: B16F10 mouse melanoma cells; test: Subcutaneous B16F10 tumor growth in C57BL/6 mice; conditions: for suppression of tumor growth: 20 mg/kg
Protocol: Animals were palpated weekly for tumor formation, after which sizeable tumors were measured twice a week. Tumor volume was calculated as (small diameter)^2×(large diameter)/2.

Row | Molecule | endothelial recruitment ([1]; MeWo cells pre-treated 48 hours) | ability of melanoma cells to recruit endothelial cells [1] | activity of luciferase reporter with ApoE promoter fused to ME.1 or ME.2 [2] | levels of secreted ApoE protein [3] | ApoE protein expression in systemic adipose, lung, and brain tissues [4] | ApoE transcript levels in circulating white blood cells [4] | suppression of tumor growth in mice genetically inactivated for ApoE ([5]; ApoE−/− mice, GW3965 diet 20 mg/kg, 7 days) | suppression of tumor growth ([5]; oral, from tumors of 5-10 mm3) [%] | reduction in tumor growth ([5]; oral, 100 mg/kg, from tumors of 5-10 mm3) [%] | reduction in the growth of established large tumors ([5]; tumors ~150 mm3, chow containing GW3965 150 mg/kg) | migration of endothelial cells towards highly metastatic cancer cells ([1]; endothelial cells pre-incubated with ApoE3 100 μM for 24 hours, LM2 cells) | endothelial recruitment ([1]; metastatic LM2 cells, recombinant ApoE3 100 μM vs BSA)
1 | O=C(O)Cc1cccc(OCCCN(Cc2cccc(C(F)(F)F)c2Cl)CC(c2ccccc2)c2ccccc2)c1 [GW3965 2, 3-[3-[N-(2-Chloro-3-trifluoromethylbenzyl)-(2,2-diphenylethyl)amino]propyloxy] phenylacetic acid hydrochloride] | decreased | consistently suppressed | enhance | elevated levels | significantly elevated | upregulated | completely ineffective | 67 | 80 | roughly 50% | – | –
2 | O=S(=O)(c1ccccc1)N(CC(F)(F)F)c1ccc(C(O)(C(F)(F)F)C(F)(F)F)cc1 [T0901317 1] | – | consistently suppressed | enhance | elevated levels | significantly elevated | upregulated | – | 61 | – | – | – | –
3 | recombinant human ApoE: recombinant human ApoE3 (4696, BioVision) | – | – | – | – | – | – | – | – | – | – | significantly reduced | significantly suppressed
